# Experimental data from ChEMBL document CHEMBL1201862, “PubChem BioAssay data set” (2004).
#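 Cultured in 96-well plates, cells were exposed to test compound for 48 hours across five concentrations. Abbreviation: GI50, concentration required for 50% inhibition of growth.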 The source made the active and inactive calls. No stated cut-off is given here; in the data, active = GI50 up to about 1.1 µM and inactive = higher.
# Columns and labels:
# Assay in all cases: growth of human tumour cells (NCI), 48 h
# M14 = tested on: M14
# HCC 2998 = tested on: HCC 2998
# IGROV-1 = tested on: IGROV-1
# NCI-H522 = tested on: NCI-H522
# SK-OV-3 = tested on: SK-OV-3
# DU-145 = tested on: DU-145
# UACC-257 = tested on: UACC-257
# Hs-578T = tested on: Hs-578T
# MDA-MB-435 = tested on: MDA-MB-435
# EKVX = tested on: EKVX
# PC-3 = tested on: PC-3
# KM12 = tested on: KM12
# HT-29 = tested on: HT-29
# RPMI-8226 = tested on: RPMI-8226
# MCF7 = tested on: MCF7
# OVCAR-8 = tested on: OVCAR-8
# NCI-H460 = tested on: NCI-H460
# OVCAR-5 = tested on: OVCAR-5
# HCT-15 = tested on: HCT-15
# SW-620 = tested on: SW-620
# HOP-62 = tested on: HOP-62
# U-251 = tested on: U-251
# NCI-H226 = tested on: NCI-H226
# SK-MEL-2 = tested on: SK-MEL-2
# CAKI-1 = tested on: CAKI-1
# SN12C = tested on: SN12C
# SF-539 = tested on: SF-539
# 786-0 = tested on: 786-0
# SF-268 = tested on: SF-268
# MDA-N = tested on: MDA-N
# LOX IMVI = tested on: LOX IMVI
# UO-31 = tested on: UO-31
# ACHN = tested on: ACHN
# T47D = tested on: T47D
# OVCAR-4 = tested on: OVCAR-4
# MDA-MB-231 = tested on: MDA-MB-231
# SR = tested on: SR
# SF-295 = tested on: SF-295
# MOLT-4 = tested on: MOLT-4
# HCT-116 = tested on: HCT-116
# TK-10 = tested on: TK-10
# A549 = tested on: A549
# Malme-3M = tested on: Malme-3M
# K562 = tested on: K562
# SNB-19 = tested on: SNB-19
# COLO 205 = tested on: COLO 205
# NCI-H23 = tested on: NCI-H23
# NCI/ADR-RES = tested on: NCI/ADR-RES
# SNB-75 = tested on: SNB-75
# OVCAR-3 = tested on: OVCAR-3
# BT-549 = tested on: BT-549
# UACC-62 = tested on: UACC-62
# SK-MEL-5 = tested on: SK-MEL-5
# SK-MEL-28 = tested on: SK-MEL-28
# HL-60 = tested on: HL-60
# A498 = tested on: A498
# CCRF-CEM = tested on: CCRF-CEM
# RXF 393 = tested on: RXF 393
# HOP-92 = tested on: HOP-92
structure (smiles),measurement,setting,value
COc1cc(C2SCC(=O)N2c2ccc(Oc3ccc(Cl)cc3)c(Cl)c2)cc(OC)c1OC (configuration not stated),GI50,M14,29.9 µM (inactive)
same,GI50,HCC 2998,40 µM (inactive)
same,GI50,IGROV-1,15.6 µM (inactive)
same,GI50,NCI-H522,12 µM (inactive)
same,GI50,SK-OV-3,17.1 µM (inactive)
same,GI50,DU-145,13.3 µM (inactive)
same,GI50,UACC-257,18.1 µM (inactive)
same,GI50,Hs-578T,22.2 µM (inactive)
same,GI50,MDA-MB-435,16 µM (inactive)
same,GI50,EKVX,23.6 µM (inactive)
same,GI50,PC-3,15.4 µM (inactive)
same,GI50,KM12,19.8 µM (inactive)
same,GI50,HT-29,16.3 µM (inactive)
same,GI50,RPMI-8226,29.4 µM (inactive)
same,GI50,MCF7,36.3 µM (inactive)
same,GI50,OVCAR-8,17 µM (inactive)
same,GI50,NCI-H460,43.4 µM (inactive)
same,GI50,OVCAR-5,23.2 µM (inactive)
same,GI50,HCT-15,26.2 µM
same,GI50,SW-620,21 µM (inactive)
same,GI50,HOP-62,20.4 µM (inactive)
same,GI50,U-251,39.5 µM (inactive)
same,GI50,NCI-H226,15.8 µM (inactive)
same,GI50,SK-MEL-2,17.1 µM (inactive)
same,GI50,CAKI-1,16.9 µM (inactive)
same,GI50,SN12C,27.3 µM (inactive)
same,GI50,SF-539,22.8 µM (inactive)
same,GI50,786-0,18.3 µM (inactive)
same,GI50,SF-268,17.2 µM (inactive)
same,GI50,MDA-N,20 µM (inactive)
same,GI50,LOX IMVI,17.9 µM (inactive)
same,GI50,UO-31,17.6 µM (inactive)
same,GI50,ACHN,30.9 µM (inactive)
same,GI50,T47D,10.3 µM (inactive)
same,GI50,OVCAR-4,42.7 µM (inactive)
same,GI50,MDA-MB-231,18.7 µM (inactive)
same,GI50,SR,22 µM (inactive)
same,GI50,SF-295,16.4 µM (inactive)
same,GI50,MOLT-4,8.04 µM (inactive)
same,GI50,HCT-116,18.7 µM (inactive)
same,GI50,TK-10,17.6 µM (inactive)
same,GI50,A549,21.9 µM (inactive)
same,GI50,Malme-3M,19.8 µM (inactive)
same,GI50,K562,33.4 µM (inactive)
same,GI50,SNB-19,34.2 µM (inactive)
same,GI50,COLO 205,19.7 µM (inactive)
same,GI50,NCI-H23,32.8 µM (inactive)
same,GI50,NCI/ADR-RES,16.6 µM (inactive)
same,GI50,SNB-75,17.2 µM (inactive)
same,GI50,OVCAR-3,17.1 µM (inactive)
same,GI50,BT-549,16.5 µM (inactive)
same,GI50,UACC-62,16 µM (inactive)
same,GI50,SK-MEL-5,17.9 µM (inactive)
same,GI50,SK-MEL-28,16.6 µM (inactive)
Nc1ncc2ncn(C3CCC(CO)O3)c2n1 (configuration not stated),GI50,M14,> 100 µM (inactive)
same,GI50,IGROV-1,> 100 µM (inactive)
same,GI50,NCI-H522,> 100 µM (inactive)
same,GI50,SK-OV-3,> 100 µM (inactive)
same,GI50,DU-145,> 100 µM (inactive)
same,GI50,UACC-257,> 100 µM (inactive)
same,GI50,Hs-578T,> 100 µM (inactive)
same,GI50,MDA-MB-435,> 100 µM (inactive)
same,GI50,EKVX,> 100 µM (inactive)
same,GI50,HL-60,> 100 µM (inactive)
same,GI50,PC-3,> 100 µM (inactive)
same,GI50,KM12,> 100 µM (inactive)
same,GI50,HT-29,> 100 µM (inactive)
same,GI50,RPMI-8226,> 100 µM (inactive)
same,GI50,MCF7,> 100 µM (inactive)
same,GI50,OVCAR-8,> 100 µM (inactive)
same,GI50,NCI-H460,> 100 µM (inactive)
same,GI50,OVCAR-5,> 100 µM (inactive)
same,GI50,HCT-15,> 100 µM
same,GI50,SW-620,> 100 µM (inactive)
same,GI50,HOP-62,> 100 µM (inactive)
same,GI50,U-251,> 100 µM (inactive)
same,GI50,NCI-H226,> 100 µM (inactive)
same,GI50,SK-MEL-2,> 100 µM (inactive)
same,GI50,CAKI-1,> 100 µM (inactive)
same,GI50,SN12C,> 100 µM (inactive)
same,GI50,SF-539,> 100 µM (inactive)
same,GI50,786-0,> 100 µM (inactive)
same,GI50,SF-268,> 100 µM (inactive)
same,GI50,MDA-N,> 100 µM (inactive)
same,GI50,LOX IMVI,> 100 µM (inactive)
same,GI50,UO-31,> 100 µM (inactive)
same,GI50,ACHN,> 100 µM (inactive)
same,GI50,T47D,> 100 µM (inactive)
same,GI50,OVCAR-4,> 100 µM (inactive)
same,GI50,MDA-MB-231,> 100 µM (inactive)
same,GI50,A498,88.7 µM (inactive)
same,GI50,SR,> 100 µM (inactive)
same,GI50,SF-295,> 100 µM (inactive)
same,GI50,CCRF-CEM,> 100 µM (inactive)
same,GI50,MOLT-4,> 100 µM (inactive)
same,GI50,HCT-116,> 100 µM (inactive)
same,GI50,TK-10,> 100 µM (inactive)
same,GI50,A549,> 100 µM (inactive)
same,GI50,K562,> 100 µM (inactive)
same,GI50,SNB-19,> 100 µM (inactive)
same,GI50,COLO 205,> 100 µM (inactive)
same,GI50,NCI-H23,> 100 µM (inactive)
same,GI50,NCI/ADR-RES,> 100 µM (inactive)
same,GI50,SNB-75,> 100 µM (inactive)
same,GI50,OVCAR-3,> 100 µM (inactive)
same,GI50,BT-549,> 100 µM (inactive)
same,GI50,UACC-62,> 100 µM (inactive)
same,GI50,SK-MEL-5,> 100 µM (inactive)
same,GI50,SK-MEL-28,> 100 µM (inactive)
COC(=O)/C=C\C(C#N)(C#N)/N=C/c1cccc(OC)c1,GI50,M14,4.12 µM (inactive)
same,GI50,HCC 2998,16.3 µM (inactive)
same,GI50,IGROV-1,11.7 µM (inactive)
same,GI50,NCI-H522,1.38 µM (inactive)
same,GI50,SK-OV-3,25.3 µM (inactive)
same,GI50,DU-145,14.5 µM (inactive)
same,GI50,UACC-257,14 µM (inactive)
same,GI50,Hs-578T,18.1 µM (inactive)
same,GI50,MDA-MB-435,6.5 µM (inactive)
same,GI50,EKVX,11.6 µM (inactive)
same,GI50,HL-60,> 100 µM (inactive)
same,GI50,PC-3,15.8 µM (inactive)
same,GI50,KM12,16.4 µM (inactive)
same,GI50,HT-29,3.77 µM (inactive)
same,GI50,RPMI-8226,2.71 µM (inactive)
same,GI50,MCF7,4.94 µM (inactive)
same,GI50,OVCAR-8,3.13 µM (inactive)
same,GI50,NCI-H460,20 µM (inactive)
same,GI50,OVCAR-5,8.49 µM (inactive)
same,GI50,HCT-15,1.93 µM
same,GI50,SW-620,2.13 µM (inactive)
same,GI50,HOP-62,> 42.7 µM (inactive)
same,GI50,RXF 393,3.18 µM (inactive)
same,GI50,U-251,15.9 µM (inactive)
same,GI50,NCI-H226,14.3 µM (inactive)
same,GI50,SK-MEL-2,17.1 µM (inactive)
same,GI50,CAKI-1,1.92 µM (inactive)
same,GI50,SN12C,11.9 µM (inactive)
same,GI50,SF-539,2.53 µM (inactive)
same,GI50,786-0,3.51 µM (inactive)
same,GI50,SF-268,17.2 µM (inactive)
same,GI50,MDA-N,7.03 µM (inactive)
same,GI50,LOX IMVI,7.16 µM (inactive)
same,GI50,UO-31,2.74 µM (inactive)
same,GI50,ACHN,2.61 µM (inactive)
same,GI50,T47D,4.8 µM (inactive)
same,GI50,OVCAR-4,6.67 µM (inactive)
same,GI50,MDA-MB-231,13.2 µM (inactive)
same,GI50,A498,18.6 µM (inactive)
same,GI50,SF-295,32.7 µM (inactive)
same,GI50,CCRF-CEM,1.72 µM (inactive)
same,GI50,MOLT-4,1.9 µM (inactive)
same,GI50,HCT-116,3.44 µM (inactive)
same,GI50,TK-10,1.91 µM (inactive)
same,GI50,A549,17.9 µM (inactive)
same,GI50,Malme-3M,1.71 µM (inactive)
same,GI50,K562,11.1 µM (inactive)
same,GI50,SNB-19,23.3 µM (inactive)
same,GI50,COLO 205,2.15 µM (inactive)
same,GI50,HOP-92,2.3 µM (inactive)
same,GI50,NCI-H23,6.9 µM (inactive)
same,GI50,NCI/ADR-RES,14.4 µM (inactive)
same,GI50,SNB-75,15.9 µM (inactive)
same,GI50,OVCAR-3,11.5 µM (inactive)
same,GI50,BT-549,7.74 µM (inactive)
same,GI50,UACC-62,15.2 µM (inactive)
same,GI50,SK-MEL-5,16.8 µM (inactive)
same,GI50,SK-MEL-28,14.3 µM (inactive)
